In PubChem BioAssay (NCI):
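Values below derive from 48-hour exposures of cells grown in 96-well plates, with endpoints linearly interpolated between the two concentrations bracketing the appropriate inhibition level. GI50 marks 50% less growth. The concentration for full growth arrest is given as TGI.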

Key:
Assay in all cases: growth of human tumour cells (NCI), 48 h
[1] = test system: 786-0 renal
[2] = test system: A498 renal
[3] = test system: A549 NSCLC
[4] = test system: ACHN renal
[5] = test system: BT-549 breast
[6] = test system: CAKI-1 renal
[7] = test system: CCRF-CEM leukemia
[8] = test system: COLO 205 colon
[9] = test system: DU-145 prostate
[10] = test system: EKVX NSCLC
[11] = test system: HCC-2998 colon
[12] = test system: HCT-116 colon
[13] = test system: HCT-15 colon
[14] = test system: HL-60(TB) leukemia
[15] = test system: HOP-62 NSCLC
[16] = test system: HOP-92 NSCLC
[17] = test system: HS 578T breast
[18] = test system: HT29 colon
[19] = test system: IGROV1 ovarian
[20] = test system: K-562 leukemia
[21] = test system: KM12 colon
[22] = test system: LOX IMVI melanoma
[23] = test system: M14 melanoma
[24] = test system: MALME-3M melanoma
[25] = test system: MCF7 breast
[26] = test system: MDA-MB-231 breast
[27] = test system: MDA-MB-435
[28] = test system: MDA-MB-468 breast
[29] = test system: MOLT-4 leukemia
[30] = test system: NCI-H226 lung
[31] = test system: NCI-H23 lung
[32] = test system: NCI-H460 lung
[33] = test system: NCI-H522 lung
[34] = test system: NCI/ADR-RES ovarian
[35] = test system: OVCAR-3 ovarian
[36] = test system: OVCAR-4 ovarian
[37] = test system: OVCAR-5 ovarian
[38] = test system: OVCAR-8 ovarian
[39] = test system: PC-3 prostate
[40] = test system: RPMI-8226 leukemia
[41] = test system: RXF 393 renal
[42] = test system: SF-268 CNS
[43] = test system: SF-295 CNS
[44] = test system: SF-539 CNS
[45] = test system: SK-MEL-2 melanoma
[46] = test system: SK-MEL-28 melanoma
[47] = test system: SK-MEL-5 melanoma
[48] = test system: SK-OV-3 ovarian
[49] = test system: SN12C renal
[50] = test system: SNB-19 CNS
[51] = test system: SNB-75 CNS
[52] = test system: SR leukemia
[53] = test system: SW-620 colon
[54] = test system: T-47D breast
[55] = test system: TK-10 renal
[56] = test system: U251 CNS
[57] = test system: UACC-257 melanoma
[58] = test system: UACC-62 melanoma
[59] = test system: UO-31 renal

C#CCN(C)CCCOc1ccc(N(C)C(=O)c2cc(C(C)C)c(O)cc2O)cc1Cl
GI50 [1]: 2600 nM
TGI [1]: 18700 nM
GI50 [2]: 642 nM
TGI [2]: 16500 nM
GI50 [3]: 188 nM
TGI [3]: 15400 nM
GI50 [4]: 96.3 nM
TGI [4]: 13500 nM
GI50 [5]: 1090 nM
TGI [5]: 15400 nM
GI50 [6]: 325 nM
TGI [6]: 14900 nM
GI50 [7]: 62.5 nM
TGI [7]: 13300 nM
GI50 [8]: 2830 nM
TGI [8]: 12500 nM
GI50 [9]: 59.2 nM
TGI [9]: 18200 nM
GI50 [10]: 526 nM
TGI [10]: 12700 nM
GI50 [11]: 224 nM
TGI [11]: 2040 nM
GI50 [12]: 88.9 nM
TGI [12]: 13300 nM
GI50 [13]: 82.7 nM
TGI [13]: 12700 nM
GI50 [14]: 53.3 nM
TGI [14]: 9100 nM
GI50 [15]: 249 nM
TGI [15]: 19600 nM
GI50 [16]: 328 nM
TGI [16]: 3590 nM
GI50 [17]: 1330 nM
TGI [17]: 27100 nM
GI50 [18]: 3270 nM
TGI [18]: 13900 nM
GI50 [19]: 172 nM
TGI [19]: 14700 nM
GI50 [20]: 78.8 nM
TGI [20]: 19400 nM
GI50 [21]: 105 nM
TGI [21]: 10900 nM
GI50 [22]: 129 nM
TGI [22]: 303 nM
GI50 [23]: 406 nM
TGI [23]: 13800 nM
GI50 [24]: 195 nM
TGI [24]: 2230 nM
GI50 [25]: 52.2 nM
TGI [25]: 15400 nM
GI50 [26]: 213 nM
TGI [26]: 10900 nM
GI50 [27]: 133 nM
TGI [27]: 12400 nM
GI50 [28]: 96.2 nM
TGI [28]: 462 nM
GI50 [29]: 101 nM
TGI [29]: 12500 nM
GI50 [30]: 557 nM
TGI [30]: 19800 nM
GI50 [31]: 298 nM
TGI [31]: 15000 nM
GI50 [32]: 67.9 nM
TGI [32]: 10900 nM
GI50 [33]: 165 nM
TGI [33]: 14100 nM
GI50 [34]: 305 nM
TGI [34]: 8930 nM
GI50 [35]: 509 nM
TGI [35]: 16800 nM
GI50 [36]: 2010 nM
TGI [36]: 22200 nM
GI50 [37]: 477 nM
TGI [37]: 16000 nM
GI50 [38]: 202 nM
TGI [38]: 21000 nM
GI50 [39]: 161 nM
TGI [39]: 16000 nM
GI50 [40]: 266 nM
TGI [40]: 20500 nM
GI50 [41]: 685 nM
TGI [41]: 13800 nM
GI50 [42]: 1320 nM
TGI [42]: 25900 nM
GI50 [43]: 348 nM
TGI [43]: 12700 nM
GI50 [44]: 325 nM
TGI [44]: 12900 nM
GI50 [45]: 1720 nM
TGI [45]: 18600 nM
GI50 [46]: 386 nM
TGI [46]: 13300 nM
GI50 [47]: 357 nM
TGI [47]: 2020 nM
GI50 [48]: 53.4 nM
TGI [48]: 12900 nM
GI50 [49]: 92.5 nM
TGI [49]: 14200 nM
GI50 [50]: 435 nM
TGI [50]: 15400 nM
GI50 [51]: 977 nM
TGI [51]: 17800 nM
GI50 [52]: 40.9 nM
TGI [52]: 19400 nM
GI50 [53]: 102 nM
TGI [53]: 13900 nM
GI50 [54]: 85.3 nM
TGI [54]: 13500 nM
GI50 [55]: 323 nM
TGI [55]: 16800 nM
GI50 [56]: 283 nM
TGI [56]: 16000 nM
GI50 [57]: 521 nM
TGI [57]: 13800 nM
GI50 [58]: 168 nM
TGI [58]: 913 nM
GI50 [59]: 148 nM
TGI [59]: 14200 nM
